Patent US20240408008A1, “AN IN-SITU GELLING ENEMA OF RIFAMYCIN FOR TREATING POUCHITIS AND DISTAL ULCERATIVE COLITIS” (COSMO TECHNOLOGIES LTD., priority 2021, published 2024)

How the values were obtained:
mTOR pathway = assay: Inhibition of mTOR and S6R phosphorylation in primary colonic epithelial cells, flow cytometry; assay type: cell-based, human; details: Homo sapiens, Epithelial cell; serum stimulated primary colonic epithelial cells, 48 hr; read-out: IC50, % cells positive for anti-pmTOR and anti-pS6R relative to DMSO
Experimental: To evaluate Rifamycin activity on the mTOR pathway, primary colonic epithelial cells were serum starved for 24 hr and restimulated with serum for 48 hr to induce phosphorylation of mTOR and its downstream target protein […]. Serum stimulated cells were treated with Rifamycin SV, Rifaximin, the positive control Rapamycin, or the negative vehicle control DMSO. Cells were fixed, stained with antibodies against pmTOR and pS6R then analyzed by flow cytometry.

DSS induced colitis = assay: Acute colitis induced by Dextran Sulfate Sodium (DSS); assay type: in vivo; details: mice, DSS 2%, PO 100 mg/Kg
Experimental: In situ gel enema formulation batch 7663 (same formulation as batch 7639) in vivo efficacy was tested in a murine model of acute colitis induced by Dextran Sulfate Sodium (DSS). This animal model is perhaps the most widely used mouse model of colitis and employs DSS, a chemical colitogen with anticoagulant properties, to induce disease which closely resembles human UC. DSS induced intestinal inflammation results in damage to the epithelial monolayer lining the large intestine allowing the dissemination of proinflammatory intestinal contents (e.g. bacteria and their products) into underlying tissue.
For this study, a group of mice was treated by enema with Batch 7663 (indicated as CB0125 in the figures) (dose 45 mg/kg), one group was treated by enema with Placebo Batch 7679 as a comparator for 7663; a group was treated by enema with Rifamycin powder dissolved in water (67 mg/kg). One group of mice was treated orally PO with 5-ASA at the dose of 100 mg/Kg; this group was introduced as positive control. 5-ASA is the golden standard therapy for inflammatory bowel diseases, including UC, distal UC and proctitis. One group was treated by enema with the vehicle (H2O) only, as negative control.
Briefly DSS (2%) was dissolved in water (w/v) and given to mice in place of normal drinking water. DSS water was provided ad libitum for 5 days and was changed daily. This period was followed by a washout period of 5 days with water only. Mice were weighed daily and monitored for clinical status including hunching, mobility, soft stool and/or diarrhoea. At end of the study mice were sacrificed by CO2 inhalation. Immediately after euthanasia, the animals were laparatomyzed and intestine was exteriorized. The entire colon was isolated from the caecum to the anus, placed unstretched on a ruler and then measured and weighed after rinsing the lumen with saline. The weight was normalized to the colon length by calculating the ratio.
For histological analysis of colon samples, about 2 cm of the middle portion of isolated colon was fixed in a 10% formalin. Each fixed fragment was embedded in paraffin. The slides were stained with haematoxylin and eosin and assessed according to the histological score.

SMILES | IC50 (mTOR pathway) [µM] | histological score (DSS induced colitis; compared to 7663) | clinical score AUC (DSS induced colitis; compared to batch 7663)
CO[C@H]1/C=C/O[C@@]2(C)Oc3c(C)c(O)c4c(O)c(c5c(nc6cc(C)ccn65)c4c3C2=O)NC(=O)/C(C)=C\C=C\[C@H](C)[C@H](O)[C@@H](C)[C@@H](O)[C@@H](C)[C@H](OC(C)=O)[C@@H]1C [Rifaximin] | 43 | – | –
CO[C@H]1C[C@@H]2CC[C@@H](C)[C@@](O)(O2)C(=O)C(=O)N2CCCC[C@H]2C(=O)O[C@H]([C@H](C)C[C@@H]2CC[C@@H](O)[C@H](OC)C2)CC(=O)[C@H](C)/C=C(\C)[C@@H](O)[C@@H](OC)C(=O)[C@H](C)C[C@H](C)/C=C/C=C/C=C/1C [Rapamycin] | 0.53 | – | –
Nc1ccc(O)c(C(=O)O)c1 [Batch 5-ASA, 5-aminosalycilic acid] | – | lower improvement | lower efficacy
